PMC8222176 (Acta biomaterialia, 2021)
pKd: −log10 of the molar value.

Experiments:
[1] = format: physicochemical; settings: in water at room temperature; DPH dye
[2] = Hydrodynamic diameter of detergent self-assemblies by dynamic light scattering; format: physicochemical; settings: 1.0 wt% detergent, water, room temperature, n = 4
[3] = Water-solubility of detergents; format: physicochemical; settings: in water
LeuT = LeuT stability assay; format: biochemical, Aquifex aeolicus; settings: detergent at CMC + 0.04 wt%, 13-day incubation, room temperature
MelBSt [4] = target: T1, MelBSt (Salmonella typhimurium, UniProt P30878); format: biochemical; settings: MelBSt extracted with 1.0 wt% detergent
T1 sequence (P30878 whole entry): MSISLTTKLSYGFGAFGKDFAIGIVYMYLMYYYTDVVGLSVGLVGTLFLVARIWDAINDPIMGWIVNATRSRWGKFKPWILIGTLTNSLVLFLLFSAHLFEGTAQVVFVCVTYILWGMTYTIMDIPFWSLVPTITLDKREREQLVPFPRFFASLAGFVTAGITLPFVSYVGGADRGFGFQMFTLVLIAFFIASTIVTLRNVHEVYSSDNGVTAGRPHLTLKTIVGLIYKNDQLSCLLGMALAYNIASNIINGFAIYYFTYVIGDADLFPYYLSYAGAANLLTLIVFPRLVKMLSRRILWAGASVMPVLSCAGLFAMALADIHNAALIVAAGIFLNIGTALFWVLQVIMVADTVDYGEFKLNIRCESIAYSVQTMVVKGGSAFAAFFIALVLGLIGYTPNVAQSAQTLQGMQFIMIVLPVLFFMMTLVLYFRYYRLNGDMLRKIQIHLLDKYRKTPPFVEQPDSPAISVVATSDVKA

MelBEc [5] = target: T2, MelBEc (Escherichia coli, UniProt P02921); assay: MelB Trp→D2G FRET assay; format: biochemical, E. coli; settings: MelBEc extracted with 1.0 wt% detergent
T2 sequence (P02921 whole entry): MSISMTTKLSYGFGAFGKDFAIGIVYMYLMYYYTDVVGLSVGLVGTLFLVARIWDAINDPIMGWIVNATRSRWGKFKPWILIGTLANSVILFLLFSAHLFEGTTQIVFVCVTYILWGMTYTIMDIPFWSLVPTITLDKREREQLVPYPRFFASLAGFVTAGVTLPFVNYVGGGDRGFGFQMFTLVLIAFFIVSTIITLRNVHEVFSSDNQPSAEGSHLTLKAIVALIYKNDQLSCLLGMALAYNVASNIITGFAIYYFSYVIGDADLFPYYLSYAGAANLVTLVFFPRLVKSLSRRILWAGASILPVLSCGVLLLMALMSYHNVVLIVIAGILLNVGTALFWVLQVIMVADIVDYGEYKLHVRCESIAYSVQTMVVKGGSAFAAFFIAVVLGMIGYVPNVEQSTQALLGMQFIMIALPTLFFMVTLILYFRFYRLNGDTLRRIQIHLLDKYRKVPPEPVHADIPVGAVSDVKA

μ-opioid receptor (MOR) = μ-opioid receptor (MOR) (Mus musculus, UniProt P42866); assay: MOR stability assay; format: biochemical; settings: 0.1 wt% detergent, 3-day incubation at room temperature
μ-opioid receptor (MOR), sequence (P42866 whole entry): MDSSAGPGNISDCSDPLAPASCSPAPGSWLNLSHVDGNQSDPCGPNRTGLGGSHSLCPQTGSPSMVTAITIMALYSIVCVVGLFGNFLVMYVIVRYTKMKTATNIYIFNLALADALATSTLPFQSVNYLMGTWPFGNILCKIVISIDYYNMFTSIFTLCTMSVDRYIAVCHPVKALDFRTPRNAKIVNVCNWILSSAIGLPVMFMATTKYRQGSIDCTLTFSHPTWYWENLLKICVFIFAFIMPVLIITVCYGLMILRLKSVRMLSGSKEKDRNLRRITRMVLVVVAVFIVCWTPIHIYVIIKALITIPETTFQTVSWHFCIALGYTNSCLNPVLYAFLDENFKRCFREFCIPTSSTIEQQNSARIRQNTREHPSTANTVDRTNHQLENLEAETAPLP

MelBSt [6] = target: T1, MelBSt; settings: 1.5 wt% detergent, further 90 min at 55 °C
MelBSt [7] = target: T1, MelBSt; settings: read-out: Apparent Kd, in the presence of Na+; cited from earlier work
MelBEc [8] = target: T2, MelBEc; settings: read-out: Apparent Kd, in the presence of Na+; cited from earlier work

Compound | CAC (critical aggregation concentration) [1] [µM] | Dh (hydrodynamic diameter of aggregates) [2] [nm] | Solubility (water-solubility) [3] [wt%] | LeuT long-term stability ([3H]-Leu binding ability) (LeuT) | fluorescence response to D2G and melibiose (MelB function) (MelBSt [4]) | fluorescence response to D2G and melibiose (MelB function) (MelBEc [5]) | MOR long-term stability ([3H]-DPN binding ability) (μ-opioid receptor (MOR)) | soluble MelBSt after incubation (MelBSt [6]) | pKd (MelBSt [7]) | pKd (MelBEc [8])
CCCCCCCCCCCCO[C@@H]1O[C@H](CO)[C@@H](O[C@H]2O[C@H](CO)[C@@H](O)[C@H](O)[C@H]2O)[C@H](O)[C@H]1O [DDM, n-dodecyl-β-D-maltoside] | 170 | 6.8 ± 0.6 | ~10 | steady decrease in the substrate binding ability over time | responsive to the successive addition of D^2G and melibiose | no response was observed | complete loss in ligand binding ability after a 1-day incubation | little DDM-solubilized MelBSt detectable |  | 
CN(C)c1cccc2c(S(=O)(=O)NCCS[C@@H]3O[C@H](CO)[C@H](O)[C@H](O)[C@H]3O)cccc12 [D^2G, 2′-(N-Dansyl)aminoalkyl-1-thio-β-D-galactopyranoside] |  |  |  |  |  |  |  |  | 4.99 | 5.51
OC[C@H]1O[C@H](OCC2O[C@@H](O)[C@H](O)[C@@H](O)[C@@H]2O)[C@H](O)[C@@H](O)[C@H]1O (stereo partly drawn) [melibiose] |  |  |  |  |  |  |  |  | 2.97 | 3.31
